Assay results as given in ChEMBL document CHEMBL5260825, “Chemical Constituents of Bryophytes: Structures and Biological Activity” (J Nat Prod, 2018).
≈ marks a conversion by molar mass, not a printed value. Where “and” joins values, the source holds several entries; their conditions need not be identical. Identical values can stand only once.

Columns and labels:
[1] = system: P388; assay: Antiproliferative activity against mouse P388 cells assessed as cell growth inhibition; assay type: functional, cell-based
[2] = system: Peritoneal macrophage cell; assay: Inhibition of superoxide anion radical release in guinea pig peritoneal macrophages; assay type: functional, cell-based; settings: Cavia porcellus
[3] = system: HL-60; assay: Antiproliferative activity against human HL-60 cells assessed as cell growth inhibition; assay type: functional, cell-based
[4] = system: Trichostrongylus colubriformis; assay: Anthelmintic activity against third stage larvae of Trichostrongylus colubriformis by microscope based analysis; assay type: functional, organism-based
[5] = system: RAW264.7; assay: Inhibition of LPS-induced NO production in mouse RAW264.7 cells; assay type: functional, cell-based
[6] = molecular target: DNA polymerase beta (Homo sapiens, UniProt P06746); assay: Inhibition of DNA polymerase beta (unknown origin)
[7] = system: RAW264.7; assay: Inhibition of LPS-induced NO production in mouse RAW264.7 cells incubated for 24 hrs by Griess reagent based assay; assay type: functional, cell-based; settings: RAW264.7, 24 h
[8] = system: RPMI-7951; assay: Antiproliferative activity against human RPMI-7951 cells assessed as cell growth inhibition; assay type: functional; settings: read-out: ED50 (the source's name)
[9] = system: U-251; assay: Antiproliferative activity against human U-251MG cells assessed as cell growth inhibition; assay type: functional; settings: read-out: ED50 (the source's name)
[10] = molecular target: T1, Polyunsaturated fatty acid 5-lipoxygenase (Homo sapiens) (UniProt P09917); assay: Inhibition of ALOX5 (unknown origin) at 0.000001 M relative to control; settings: dose 1 µM
T1 sequence (whole entry): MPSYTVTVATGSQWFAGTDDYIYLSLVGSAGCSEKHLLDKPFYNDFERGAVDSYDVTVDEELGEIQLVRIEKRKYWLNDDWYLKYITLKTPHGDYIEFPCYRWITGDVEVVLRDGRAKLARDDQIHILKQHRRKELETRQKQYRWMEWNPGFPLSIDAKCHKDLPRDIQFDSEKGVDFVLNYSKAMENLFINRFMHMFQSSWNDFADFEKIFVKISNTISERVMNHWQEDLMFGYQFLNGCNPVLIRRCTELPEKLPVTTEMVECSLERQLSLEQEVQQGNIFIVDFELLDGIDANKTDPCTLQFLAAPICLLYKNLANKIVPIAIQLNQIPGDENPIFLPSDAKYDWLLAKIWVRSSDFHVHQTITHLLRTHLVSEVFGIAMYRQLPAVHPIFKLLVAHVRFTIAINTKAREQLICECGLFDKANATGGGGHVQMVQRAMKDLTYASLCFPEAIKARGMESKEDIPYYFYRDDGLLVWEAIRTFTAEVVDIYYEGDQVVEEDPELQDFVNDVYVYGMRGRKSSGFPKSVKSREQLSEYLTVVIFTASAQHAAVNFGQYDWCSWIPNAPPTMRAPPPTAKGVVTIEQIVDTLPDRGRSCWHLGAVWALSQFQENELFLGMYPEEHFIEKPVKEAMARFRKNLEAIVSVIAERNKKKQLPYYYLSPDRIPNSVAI

[11] = system: Candida albicans; assay: Antifungal activity against Candida albicans assessed as inhibition of fungal growth by MTT assay; assay type: functional
[12] = system: KB; assay: Antiproliferative activity against human KB cells assessed as cell growth inhibition; assay type: functional, cell-based
[13] = molecular target: Cyclooxygenase (Homo sapiens, UniProt P35354+P23219); assay: Inhibition of COX (unknown origin); assay type: protein assay
[14] = system: Staphylococcus aureus; assay: Antibacterial activity against Staphylococcus aureus assessed as inhibition of bacterial growth by agar diffusion method; assay type: functional

## C=C1C(=O)C[C@H]2[C@H]3[C@@H]1[C@]2(C)CCCC3(C)C
[1]
  IC50: 1 µg/mL (≈ 4.58 µM)

## CC1(C)[C@H](OC(=O)/C=C/c2ccc(O)c(O)c2)CC[C@]2(C)[C@H]3C4C[C@@]12C[C@]43C
[2]
  IC50: 7.5 µg/mL (≈ 19.6 µM)

## C=C1C(=O)[C@@H]2C3=C(CC[C@@H]4C(C)(C)CCC[C@@]34C)C[C@H]1[C@@H]2O
[3]
  IC50: 1.28 µM

## C=C1C(=O)O[C@@H]2/C=C(\C)CC/C=C(\C)CC(OC(C)=O)[C@@H]12 (stereo partly drawn)
[3]
  IC50: 4.6 µM

## COc1cc(/C=C\c2ccccc2)ccc1O
[4]
  IC50: 70 µg/mL (≈ 309 µM)

## C=C1C(=O)[C@H]2C[C@@H]1CC1=C2[C@@]2(C)[C@H](CC1)C(C)(C)CC[C@@H]2O
[3]
  IC50: 0.28 µM

## C[C@H]1CC[C@@]2(C)[C@@H](CC[C@@H]3O[C@@]32C)[C@]1(C)CCc1ccoc1
[5]
  IC50: 4.5 µM

## Oc1ccc2c(c1)CCc1ccc(cc1)Oc1cc(cc(-c3cc4c(cc3O)CCc3ccc(cc3)Oc3cc(ccc3O)CCc3ccc-4c(O)c3)c1O)CCc1ccc-2c(O)c1
[6]
  IC50: 5.16 µM

## CC(C)=CCC/C(C)=C/Cc1c(O)cc(O)cc1CCc1ccccc1
[5]
  IC50: 4.5 µM

## C=C1C(=O)O[C@H]2C3=C(C)CCC[C@@]3(C)CC[C@H]12
[1]
  IC50: 1.1 µg/mL (≈ 4.73 µM)

## Cc1ccc([C@@]2(C)CCCC2(C)C)c(O)c1O
[7]
  IC50: 4.1 µM

## C=C[C@@]1(O)CC(=O)[C@@]2(C(=O)OC)[C@H](C)CC[C@@]2(C)[C@@H]1C
[3]
  IC50: 2.7 µM

## C[C@]12COc3cc(CCc4ccccc4)c(C(=O)O)c(O)c3[C@H]1C2
[2]
  IC50: 6 µg/mL (≈ 18.5 µM)

## O=C(/C=C/c1ccccc1)c1cc(O)cc2c1CC(c1ccccc1)O2 (stereo not drawn) [PALLIDISETIN A]
[8]
  EC50: 1 µg/mL (≈ 2.92 µM)
[9]
  EC50: 2 µg/mL (≈ 5.84 µM)

## CC1=CCc2c(O)cc(CCc3ccc(O)cc3)cc2OC1
[10]
  inhibition: 4%

## C=C1C[C@@]23CC(OC(=O)/C=C/c4ccc(O)c(O)c4)[C@@H]1[C@@]2(C)CCCC3(C)C (stereo partly drawn)
[5]
  IC50: 6.3 µM

## O=C(/C=C\c1ccccc1)c1cc(O)cc2c1CC(c1ccccc1)O2 (stereo not drawn) [PALLIDISETIN B]
[8]
  EC50: 1 µg/mL (≈ 2.92 µM)
[9]
  EC50: 2 µg/mL (≈ 5.84 µM)

## CC1(C)CCC[C@]2(C)[C@@H](C=O)C(C=O)=CC[C@@H]12 [POLYGODIAL]
[4]
  IC50: 70 µg/mL (≈ 299 µM)

## C=C1C(=O)[C@H]2C[C@@H]1CC1=C2[C@]2(C)CCCC(C)(C)[C@H]2CC1
[3]
  IC50: 1.21 µM

## Clc1ccc(COC(Cn2ccnc2)c2ccc(Cl)cc2Cl)c(Cl)c1 (stereo not drawn) [MICONAZOLE]
[11]
  MID: 0.01 µg

## C=C1[C@@H]2CCC3[C@@](CC(=O)[C@@H]4C(C)(C)CCC[C@@]34CO[C@@H]3O[C@H](CO)[C@@H](O)[C@H](O)[C@H]3OC(C)=O)(C2)[C@@H]1O (stereo partly drawn)
[2]
  IC50: 12.5 µg/mL (≈ 23.9 µM)

## C=C1C(=O)[C@@H]2C3=C(CC[C@@H]4C(C)(C)CC[C@H](O)[C@@]34C)C[C@H]1[C@@H]2O
[3]
  IC50: 0.78 µM

## Oc1cc(CCc2ccccc2O)c2ccoc2c1
[5]
  IC50: 4.5 µM

## C[C@H]1C(O)(O)C[C@@]2(C)[C@@H](CC[C@@H]3O[C@@]32C)[C@]1(C)CCc1ccoc1
[5]
  IC50: 4.5 µM

## C/C1=C\[C@@H]2[C@H](CC/C(C)=C/CC1)C2(C)C=O (stereo partly drawn)
[2]
  IC50: 12.5 µg/mL (≈ 57.3 µM)

## Cc1ccc(O)c([C@@]2(C)CCCC2(C)C)c1
[7]
  IC50: 4.1 µM

## C=C1C(=O)C[C@H]2[C@H]3[C@@H]1[C@]2(COC(C)=O)CCCC3(C)C
[1]
  IC50: 1 µg/mL (≈ 3.62 µM)

## Oc1ccc2c(c1)CCc1ccc(cc1)Oc1cc(cc(-c3cc4cc(c3O)Oc3ccc(cc3)CCc3cc(O)ccc3-c3ccc(cc3O)CC4)c1O)CCc1ccc-2c(O)c1 [PUSILATIN B]
[6]
  IC50: 13 µM

## COC1Cc2cccc(c2)Oc2c(O)cccc2CCc2ccc(cc2)Oc2cc1cc(O)c2O (stereo not drawn) [MARCHANTIN E]
[12]
  IC50: 7.6 µM
[11]
  MID: 2.5 µg/mL
[10]
  inhibition: 4%
[13]
  IC50: 58 µM

## C=C1[C@@H]2CCC3[C@@](CC(=O)[C@@H]4C(C)(C)CCC[C@@]34CO[C@@H]3O[C@H](CO)[C@@H](O)[C@H](O)[C@H]3O)(C2)[C@@H]1O (stereo partly drawn)
[2]
  IC50: 12.5 µg/mL (≈ 26 µM)

## CC1=CCc2c(cc(CCc3ccccc3)c(C(=O)O)c2O)OC1
[10]
  inhibition: 4%
[13]
  IC50: 39.7 µM

## COc1cc(OC)c2c3c1-c1c(O)cccc1[C@@H]1Oc4ccccc4[C@@H](C[C@@H]2O)[C@@H]31
[9]
  EC50: 0.8 µg/mL (≈ 1.99 µM)

## C=C1C(=O)O[C@H]2C[C@@]3(C)CCC=C(C)[C@@H]3C[C@@H]12
[12]
  IC50: 3.3 µg/mL
[3]
  IC50: 1.4 µg/mL

## CC(C)(O)[C@H]1CC[C@@]2(C)C1CC[C@]1(C)C2CCC2[C@@]3(C)CCCC(C)(C)[C@@H]3[C@@H](O)C[C@]21C (stereo partly drawn)
[1]
  IC50: 1.1 µg/mL (≈ 2.47 µM)

## Cc1cc([C@@]2(C)CCCC2(C)C)cc(O)c1O
[2]
  IC50: 12.5 µg/mL (≈ 53.3 µM)

## C=C1CC[C@H]2[C@@H]([C@H]3C(C)=COC(=O)[C@@H]13)C2(C)C
[2]
  IC50: 12.5 µg/mL (≈ 53.8 µM)

## Oc1ccc2cc1Oc1ccc(cc1)CCc1c(cc(O)c(O)c1O)-c1ccc(cc1O)CC2
[11]
  MID: 4 µg/mL

## COc1cc(CCc2cccc(Oc3c(O)cccc3CCc3ccc(O)cc3)c2)cc(O)c1O
[13]
  IC50: 45.2 µM
[6]
  IC50: 14.4 µM

## COC(=O)[C@@]12Cc3occc3C(=O)[C@]1(C)CC[C@H]2C [NORPINGUISONE METHYL ESTER]
[2]
  IC50: 35 µg/mL (≈ 133 µM)
[5]
  IC50: 45.5 µM

## C=C1C(=O)O[C@H]2C/C(C)=C/CC[C@@]3(C)O[C@H]3C[C@H]12
[3]
  IC50: 8.5 µM

## CC1(C)CCC[C@]2(C)CC3=CC(=O)O[C@@]3(O)C[C@@H]12
[1]
  IC50: 2.3 µg/mL (≈ 9.19 µM)

## O=C(N[C@H](CO)[C@H](O)c1ccc([N+](=O)[O-])cc1)C(Cl)Cl [CHLORAMPHENICOL]
[14]
  diameter of the inhibition zone (DIZ): 22 mm

## C=C1C(=O)[C@@]23CC[C@@H]4C(C)(C)CC[C@H](O)[C@@]4(C)C2=CC[C@@H]1C3
[3]
  IC50: 7 µM

## C=C1C(=O)[C@@]23CC[C@@H]4C(C)(C)CCC[C@@]4(C)C2=CC(=O)[C@@H]1C3
[3]
  IC50: 0.59 µM

## COc1ccc(C[C@@H]2OC(=O)c3c(OC)cc(OC)cc32)cc1
[12]
  IC50: 0.96 µM
[3]
  IC50: 0.92 µM

## CC1(C)[C@H]2CC[C@]3(C)Oc4cc(O)cc(CCc5ccccc5)c4[C@H]1[C@@H]23
[5]
  IC50: 4.5 µM

## C=C1C(=O)[C@@]23CC[C@@H]4C(C)(C)CCC[C@@]4(C)[C@@H]2[C@@H](O)C[C@@H]1C3
[1]
  GI50: 0.48 µg/mL and 1.6 µM
[3]
  IC50: 0.49 µM

## CC(C)=CCc1c(O)cc(CCc2ccccc2)cc1O
[10]
  inhibition: 4%

## CC1=CCc2c(O)cc(CCc3ccccc3)cc2OC1
[10]
  inhibition: 4%
[5]
  IC50: 4.5 µM

## C[C@@H]1CC[C@H]2C(=O)c3ccoc3C[C@@]12C
[2]
  IC50: 12.5 µg/mL (≈ 61.2 µM)
[5]
  IC50: 1.7 µM

## CC1=CCc2c(O)cc(CCc3ccccc3O)cc2OC1
[5]
  IC50: 4.5 µM

## CC(C)=CCC[C@@]1(C)C=Cc2c(CCc3ccccc3)cc(O)cc2O1
[5]
  IC50: 4.5 µM

## C[C@H]1C(=O)C2=C[C@H]1CCC(=O)[C@]1(C)CCCC(C)(C)[C@H]1C[C@H]2O
[1]
  GI50: 1.9 µg/mL and 5.9 µM
  IC50: 0.8 µg/mL (≈ 2.51 µM)

## C=C1C(=O)[C@]23C[C@H]1CC[C@H]2[C@]1(C)CCCC(C)(C)[C@H]1[C@@H](O)C3
[3]
  IC50: 0.4 µM

## Oc1cccc(CCc2ccc(Oc3cc(CCc4cccc(O)c4)cc(O)c3O)cc2)c1 [PERROTETTIN F]
[6]
  IC50: 14.4 µM

## NC[C@H]1O[C@H](O[C@H]2[C@H](O)[C@@H](O[C@H]3O[C@H](CO)[C@@H](O)[C@H](N)[C@H]3O)[C@H](N)C[C@@H]2N)[C@H](O)[C@@H](O)[C@@H]1O [KANAMYCIN]
[14]
  diameter of the inhibition zone (DIZ): 23 mm

## Cc1cc([C@@]2(C)CCCC2(C)C)ccc1O
[7]
  IC50: 4.1 µM

## C=C1C(=O)O[C@H]2/C=C(\C)CC/C=C(\C)CC[C@H]12
[1]
  IC50: 0.7 µg/mL (≈ 3.01 µM)

## C=C1CCC[C@H]2C(=C)C(=O)O[C@@]23[C@@H](C)CC[C@@H]13
[3]
  IC50: 5.3 µg/mL
